Each structure is given as a SMILES string.

A short description of this data set: Aqueous solubility of extractants by qNMR. Type of data set: physicochemical. The note with it: water, thermodynamic from solid; experimentally determined; in D2O by qNMR. Here is the method: A 1 mL volumetric flask was charged with 10–15 mg of the extractant and 1 mL of D2O. The resulting suspension was sonicated for 30 min and the content was centrifuged, filtered through a 0.45 µm syringe filter, and transferred into an NMR tube. A sealed capillary containing an external calibrant (acetanilide for ^1H qNMR and triphenylphosphine for ^31P qNMR) was inserted into the NMR tube and the solubility of extractants 1–9 was determined from their ^1H or ^31P NMR spectra using the formula: Cx = (Ix/Ical) × (Ncal/Nx) × Ccal, where I, N, and C are the integral area, number of nuclei, and the concentration of the extractant (x) and the calibrant (cal), respectively.
In the case of `COP(=O)(O)C(Nc1ccc(C(F)(F)F)cc1)c1cc(C(F)(F)F)cc(C(F)(F)F)c1` (stereo not drawn) [Extractant 6], the solubility at 30 min is 2600 µM.

For `CCCCCCCCOP(=O)(O)C(Nc1cc(C(F)(F)F)cc(C(F)(F)F)c1)c1ccc(C(C)(C)C)cc1` (stereo not drawn) [Extractant 7], the solubility at 30 min amounted to 80 µM.

For the molecule `COCCOCCOP(=O)(O)C(Nc1cc(C(F)(F)F)cc(C(F)(F)F)c1)c1ccc(C(F)(F)F)cc1` (stereo not drawn) [Extractant 8], the solubility at 30 min stood at 1600 µM.

For the molecule `COP(=O)(O)C(Nc1ccc(C(C)(C)C)cc1)c1ccc(C(C)(C)C)cc1` (stereo not drawn) [Extractant 2], the solubility at 30 min stood at 100 µM.

In turn, `CCCCCCCCOP(=O)(O)C(Nc1ccc(C(F)(F)F)cc1)c1ccc(C(C)(C)C)cc1` (stereo not drawn) [Extractant 4] registered a solubility at 30 min of 80 µM.

`CCCCCCCCOP(=O)(O)C(Nc1ccc(OC)cc1)c1cccs1` (stereo not drawn) [Extractant 3] displayed a solubility at 30 min of 250 µM.

For the molecule `COCCOCCOP(=O)(O)C(Nc1cc(C(F)(F)F)cc(C(F)(F)F)c1)c1cc(C(F)(F)F)cc(C(F)(F)F)c1` (stereo not drawn) [Extractant 9], the solubility at 30 min was 1730 µM.

Take `CCCCCCCCOP(=O)(O)C(Nc1ccccc1)c1ccccc1` (stereo not drawn) [Extractant 1, reference compound]: the solubility at 30 min is 220 µM.

Regarding `CCCCCCCCOP(=O)(O)C(Nc1ccc(OC)cc1)c1ccc(C(F)(F)F)cc1` (stereo not drawn) [Extractant 5], the solubility at 30 min was 40 µM.
